# Experiments:
# Assay in all cases: radiometric filter-binding kinase assay
# CSK (human) = CSK (human) (UniProt P41240)
# DYRK2 (human) = DYRK2 (human) (UniProt Q92630)
# EEF2K (human) = EEF2K (human) (UniProt O00418)
# EPHA4 (human) = EPHA4 (human) (UniProt P54764)
# EPHB2 (human) = EPHB2 (human) (UniProt P29323)
# EPHB3 (human) = EPHB3 (human) (UniProt P54753); conditions: compound 10.0 µM
# ERBB4 (human) = ERBB4 (human) (UniProt Q15303)
# IKBKB (human) = IKBKB (human) (UniProt O14920); conditions: compound 1.0 µM
# MAP2K2 (human) = MAP2K2 (human) (UniProt P36507)
# MAP3K1 (human) = MAP3K1 (human) (UniProt Q13233)
# MAPK11 (human) = MAPK11 (human) (UniProt Q15759)
# MAPK12 (human) = MAPK12 (human) (UniProt P53778)
# MAPK14 (human) = MAPK14 (human) (UniProt Q16539)
# MARK3 (human) = MARK3 (human) (UniProt P27448)
# MARK4 (human) = MARK4 (human) (UniProt Q96L34)
# MELK (human) = MELK (human) (UniProt Q14680)
# MKNK1 (human) = MKNK1 (human) (UniProt Q9BUB5)
# MYLK (human) = MYLK (human) (UniProt Q15746)
# NEK2 (human) = NEK2 (human) (UniProt P51955)
# NUAK1 (human) = NUAK1 (human) (UniProt O60285)
# [1] = tested on: PAK2 (human), Q13177 [T402E]
# PAK4 (human) = PAK4 (human) (UniProt O96013)
# PAK6 (human) = PAK6 (human) (UniProt Q9NQU5)
# PDPK1 (human) = PDPK1 (human) (UniProt O15530); conditions: compound 1.0 µM
# PIM2 (human) = PIM2 (human) (UniProt Q9P1W9)
# PRKAA1 or PRKAA2 (rat) = conditions: compound 1.0 µM; accession and sequence are those of the human protein
# ROCK2 (rat) = conditions: accession and sequence are those of the human protein
# SIK2 (human) = SIK2 (human) (UniProt Q9H0K1)
# SRPK1 (human) = SRPK1 (human) (UniProt Q96SB4)
# TBK1 (human) = TBK1 (human) (UniProt Q9UHD2)
# TTBK1 (human) = TTBK1 (human) (UniProt Q5TCY1)
# ULK1 (human) = ULK1 (human) (UniProt O75385)
# WNK1 (human) = WNK1 (human) (UniProt Q9H4A3)
# Chain of TBK1 (human) (Q9UHD2 whole entry, looked up): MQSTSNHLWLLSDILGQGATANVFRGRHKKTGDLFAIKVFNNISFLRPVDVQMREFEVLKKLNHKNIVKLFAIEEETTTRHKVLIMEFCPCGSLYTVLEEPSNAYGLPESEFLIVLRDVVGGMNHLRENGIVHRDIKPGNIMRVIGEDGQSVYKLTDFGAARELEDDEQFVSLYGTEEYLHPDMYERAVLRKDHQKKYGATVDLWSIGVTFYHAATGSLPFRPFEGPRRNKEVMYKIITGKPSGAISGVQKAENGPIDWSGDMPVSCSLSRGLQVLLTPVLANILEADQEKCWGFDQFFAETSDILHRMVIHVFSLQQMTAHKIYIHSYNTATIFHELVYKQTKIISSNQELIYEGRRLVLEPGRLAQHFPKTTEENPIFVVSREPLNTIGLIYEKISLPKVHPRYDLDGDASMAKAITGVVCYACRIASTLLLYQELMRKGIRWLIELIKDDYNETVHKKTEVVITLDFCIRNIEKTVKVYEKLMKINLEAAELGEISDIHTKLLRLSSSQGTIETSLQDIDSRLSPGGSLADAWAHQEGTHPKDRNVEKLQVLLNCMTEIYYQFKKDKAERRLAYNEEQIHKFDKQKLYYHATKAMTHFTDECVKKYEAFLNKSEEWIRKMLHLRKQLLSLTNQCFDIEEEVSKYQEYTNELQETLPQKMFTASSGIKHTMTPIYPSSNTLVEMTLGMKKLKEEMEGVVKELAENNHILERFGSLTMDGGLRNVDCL
# Chain of EPHA4 (human) (P54764 whole entry, looked up): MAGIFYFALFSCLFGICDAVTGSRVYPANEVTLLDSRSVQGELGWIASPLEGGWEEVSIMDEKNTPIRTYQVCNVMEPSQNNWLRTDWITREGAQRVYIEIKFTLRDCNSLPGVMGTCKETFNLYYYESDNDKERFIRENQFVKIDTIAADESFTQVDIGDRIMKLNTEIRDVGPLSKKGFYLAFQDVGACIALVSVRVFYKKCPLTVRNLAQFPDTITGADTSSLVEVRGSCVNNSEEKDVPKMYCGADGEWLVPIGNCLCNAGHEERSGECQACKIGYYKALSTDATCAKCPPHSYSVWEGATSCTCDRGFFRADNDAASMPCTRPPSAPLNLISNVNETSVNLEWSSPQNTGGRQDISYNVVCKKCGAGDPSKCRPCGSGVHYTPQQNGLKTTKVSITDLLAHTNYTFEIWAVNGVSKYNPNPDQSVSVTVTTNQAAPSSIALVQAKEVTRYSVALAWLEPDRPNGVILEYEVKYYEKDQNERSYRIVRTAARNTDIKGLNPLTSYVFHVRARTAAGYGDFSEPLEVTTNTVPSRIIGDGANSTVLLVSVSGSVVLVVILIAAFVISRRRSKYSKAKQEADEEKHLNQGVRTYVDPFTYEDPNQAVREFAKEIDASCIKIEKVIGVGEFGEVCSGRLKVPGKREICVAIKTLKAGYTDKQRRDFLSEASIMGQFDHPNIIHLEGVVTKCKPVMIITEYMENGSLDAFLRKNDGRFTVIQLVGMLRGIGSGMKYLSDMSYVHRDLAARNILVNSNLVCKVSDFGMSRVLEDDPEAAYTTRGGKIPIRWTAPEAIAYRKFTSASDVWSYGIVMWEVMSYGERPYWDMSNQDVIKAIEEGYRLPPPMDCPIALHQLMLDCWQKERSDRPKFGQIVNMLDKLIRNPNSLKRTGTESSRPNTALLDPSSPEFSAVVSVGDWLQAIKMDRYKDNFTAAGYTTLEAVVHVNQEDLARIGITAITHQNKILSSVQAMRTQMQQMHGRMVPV
# Chain of TTBK1 (human) (Q5TCY1 whole entry, looked up): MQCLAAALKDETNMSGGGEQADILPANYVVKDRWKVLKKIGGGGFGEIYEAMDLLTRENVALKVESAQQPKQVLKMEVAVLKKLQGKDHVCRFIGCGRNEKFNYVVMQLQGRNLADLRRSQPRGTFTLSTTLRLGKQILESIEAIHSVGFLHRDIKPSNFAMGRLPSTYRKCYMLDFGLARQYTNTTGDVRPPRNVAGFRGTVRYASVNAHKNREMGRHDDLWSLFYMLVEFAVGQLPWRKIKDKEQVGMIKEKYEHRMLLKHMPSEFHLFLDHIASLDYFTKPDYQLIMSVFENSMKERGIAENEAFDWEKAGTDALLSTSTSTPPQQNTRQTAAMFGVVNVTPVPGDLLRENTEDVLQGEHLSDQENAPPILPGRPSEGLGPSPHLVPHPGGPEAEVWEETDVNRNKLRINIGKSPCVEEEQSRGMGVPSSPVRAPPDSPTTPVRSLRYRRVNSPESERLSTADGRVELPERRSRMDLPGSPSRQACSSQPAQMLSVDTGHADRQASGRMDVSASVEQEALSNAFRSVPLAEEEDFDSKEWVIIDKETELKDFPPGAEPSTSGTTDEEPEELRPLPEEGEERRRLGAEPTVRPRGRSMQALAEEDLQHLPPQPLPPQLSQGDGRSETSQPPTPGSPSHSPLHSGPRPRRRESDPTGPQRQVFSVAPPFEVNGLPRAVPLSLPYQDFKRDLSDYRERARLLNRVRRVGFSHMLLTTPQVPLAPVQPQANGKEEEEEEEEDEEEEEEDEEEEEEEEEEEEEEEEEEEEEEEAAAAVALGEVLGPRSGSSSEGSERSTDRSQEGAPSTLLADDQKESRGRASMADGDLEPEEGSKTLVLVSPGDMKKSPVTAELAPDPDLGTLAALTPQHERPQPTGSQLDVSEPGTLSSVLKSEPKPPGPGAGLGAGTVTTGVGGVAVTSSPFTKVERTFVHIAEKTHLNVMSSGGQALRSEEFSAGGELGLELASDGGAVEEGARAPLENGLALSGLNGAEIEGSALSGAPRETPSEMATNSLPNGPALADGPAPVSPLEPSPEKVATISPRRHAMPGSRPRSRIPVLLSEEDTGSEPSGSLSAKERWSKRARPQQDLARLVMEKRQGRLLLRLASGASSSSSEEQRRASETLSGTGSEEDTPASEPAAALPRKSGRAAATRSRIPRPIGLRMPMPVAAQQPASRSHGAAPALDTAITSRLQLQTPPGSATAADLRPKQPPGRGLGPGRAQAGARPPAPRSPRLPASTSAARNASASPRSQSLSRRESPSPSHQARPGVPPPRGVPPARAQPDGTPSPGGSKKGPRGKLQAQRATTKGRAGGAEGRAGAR
# Chain of MYLK (human) (Q15746 whole entry, looked up): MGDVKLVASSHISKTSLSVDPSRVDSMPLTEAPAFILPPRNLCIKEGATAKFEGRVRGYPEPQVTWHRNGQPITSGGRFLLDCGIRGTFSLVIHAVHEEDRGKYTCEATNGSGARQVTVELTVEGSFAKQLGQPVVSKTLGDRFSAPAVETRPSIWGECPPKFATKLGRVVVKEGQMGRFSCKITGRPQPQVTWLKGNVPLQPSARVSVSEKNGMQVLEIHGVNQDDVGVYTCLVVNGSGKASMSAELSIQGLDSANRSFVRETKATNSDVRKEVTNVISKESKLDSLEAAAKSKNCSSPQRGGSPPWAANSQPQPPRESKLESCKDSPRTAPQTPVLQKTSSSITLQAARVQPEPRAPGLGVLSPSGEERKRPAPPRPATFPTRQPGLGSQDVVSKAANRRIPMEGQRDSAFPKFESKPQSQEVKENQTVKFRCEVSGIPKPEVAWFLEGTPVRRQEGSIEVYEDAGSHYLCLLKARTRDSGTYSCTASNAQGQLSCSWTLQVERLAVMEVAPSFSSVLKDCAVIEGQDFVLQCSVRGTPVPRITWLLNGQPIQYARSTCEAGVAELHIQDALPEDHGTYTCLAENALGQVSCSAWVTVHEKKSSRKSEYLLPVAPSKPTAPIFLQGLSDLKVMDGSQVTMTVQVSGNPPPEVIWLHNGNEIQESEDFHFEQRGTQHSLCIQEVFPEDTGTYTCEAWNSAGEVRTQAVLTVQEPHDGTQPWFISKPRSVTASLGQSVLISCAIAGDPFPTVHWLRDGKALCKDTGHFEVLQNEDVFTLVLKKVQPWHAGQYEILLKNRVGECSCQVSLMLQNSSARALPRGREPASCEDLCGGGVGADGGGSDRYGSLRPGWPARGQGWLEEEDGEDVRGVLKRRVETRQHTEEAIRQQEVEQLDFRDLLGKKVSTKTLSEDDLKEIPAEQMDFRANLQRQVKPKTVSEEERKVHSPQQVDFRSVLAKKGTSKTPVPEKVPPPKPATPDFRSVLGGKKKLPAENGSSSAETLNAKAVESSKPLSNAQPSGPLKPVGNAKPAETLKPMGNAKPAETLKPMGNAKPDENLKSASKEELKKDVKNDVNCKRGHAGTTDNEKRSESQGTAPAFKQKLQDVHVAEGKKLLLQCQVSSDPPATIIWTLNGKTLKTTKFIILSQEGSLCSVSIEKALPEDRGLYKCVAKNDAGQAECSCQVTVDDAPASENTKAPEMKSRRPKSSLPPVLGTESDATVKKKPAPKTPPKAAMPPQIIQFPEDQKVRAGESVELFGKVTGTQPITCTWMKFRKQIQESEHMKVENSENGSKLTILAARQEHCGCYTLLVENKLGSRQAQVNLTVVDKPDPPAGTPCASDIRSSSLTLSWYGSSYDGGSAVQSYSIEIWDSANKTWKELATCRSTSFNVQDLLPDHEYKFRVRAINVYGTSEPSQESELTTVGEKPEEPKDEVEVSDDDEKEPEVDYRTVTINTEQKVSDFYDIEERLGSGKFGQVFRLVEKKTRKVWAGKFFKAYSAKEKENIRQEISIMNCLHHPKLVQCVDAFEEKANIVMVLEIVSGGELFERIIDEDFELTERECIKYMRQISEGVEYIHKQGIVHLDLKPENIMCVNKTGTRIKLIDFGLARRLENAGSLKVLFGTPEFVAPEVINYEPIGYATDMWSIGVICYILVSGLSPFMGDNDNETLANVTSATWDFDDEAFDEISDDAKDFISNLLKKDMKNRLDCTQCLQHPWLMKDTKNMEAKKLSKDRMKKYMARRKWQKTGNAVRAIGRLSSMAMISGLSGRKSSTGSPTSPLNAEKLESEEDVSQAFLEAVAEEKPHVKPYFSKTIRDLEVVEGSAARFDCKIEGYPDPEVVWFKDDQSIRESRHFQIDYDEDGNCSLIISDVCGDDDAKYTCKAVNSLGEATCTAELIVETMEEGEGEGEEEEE
structure (smiles),measurement,setting,value
CNc1nc(Nc2ccc(C(=O)N3CCOCC3)cc2OC)ncc1Cl,residual activity,CSK (human); compound 1.0 µM,97%
same,residual activity,CSK (human); compound 10.0 µM,103%
same,residual activity,DYRK2 (human); compound 1.0 µM,44%
same,residual activity,DYRK2 (human); compound 10.0 µM,21%
same,residual activity,EEF2K (human); compound 1.0 µM,83%
same,residual activity,EEF2K (human); compound 10.0 µM,86%
same,residual activity,EPHA4 (human); compound 1.0 µM,100%
same,residual activity,EPHA4 (human); compound 10.0 µM,94%
same,residual activity,EPHB2 (human); compound 1.0 µM,105%
same,residual activity,EPHB2 (human); compound 10.0 µM,103%
same,residual activity,EPHB3 (human),101%
same,residual activity,ERBB4 (human); compound 1.0 µM,89%
same,residual activity,ERBB4 (human); compound 10.0 µM,94%
same,residual activity,IKBKB (human),82%
same,residual activity,MAP2K2 (human); compound 1.0 µM,91%
same,residual activity,MAP2K2 (human); compound 10.0 µM,86%
same,residual activity,MAP3K1 (human); compound 1.0 µM,93%
same,residual activity,MAP3K1 (human); compound 10.0 µM,98%
same,residual activity,MAPK11 (human); compound 1.0 µM,57%
same,residual activity,MAPK11 (human); compound 10.0 µM,93%
same,residual activity,MAPK12 (human); compound 1.0 µM,88%
same,residual activity,MAPK12 (human); compound 10.0 µM,94%
same,residual activity,MAPK14 (human); compound 1.0 µM,71%
same,residual activity,MAPK14 (human); compound 10.0 µM,93%
same,residual activity,MARK3 (human); compound 1.0 µM,91%
same,residual activity,MARK3 (human); compound 10.0 µM,78%
same,residual activity,MARK4 (human); compound 1.0 µM,82%
same,residual activity,MARK4 (human); compound 10.0 µM,72%
same,residual activity,MELK (human); compound 1.0 µM,88%
same,residual activity,MELK (human); compound 10.0 µM,98%
same,residual activity,MKNK1 (human); compound 1.0 µM,71%
same,residual activity,MKNK1 (human); compound 10.0 µM,44%
same,residual activity,MYLK (human); compound 1.0 µM,83%
same,residual activity,MYLK (human); compound 10.0 µM,55%
same,residual activity,NEK2 (human); compound 1.0 µM,63%
same,residual activity,NEK2 (human); compound 10.0 µM,90%
same,residual activity,NUAK1 (human); compound 1.0 µM,43%
same,residual activity,NUAK1 (human); compound 10.0 µM,20%
same,residual activity,[1]; compound 1.0 µM,97%
same,residual activity,[1]; compound 10.0 µM,105%
same,residual activity,PAK4 (human); compound 1.0 µM,87%
same,residual activity,PAK4 (human); compound 10.0 µM,84%
same,residual activity,PAK6 (human); compound 1.0 µM,90%
same,residual activity,PAK6 (human); compound 10.0 µM,98%
same,residual activity,PDPK1 (human),102%
same,residual activity,PIM2 (human); compound 1.0 µM,94%
same,residual activity,PIM2 (human); compound 10.0 µM,97%
same,residual activity,PRKAA1 or PRKAA2 (rat),89%
same,residual activity,ROCK2 (rat); compound 1.0 µM,87%
same,residual activity,ROCK2 (rat); compound 10.0 µM,71%
same,residual activity,SIK2 (human); compound 1.0 µM,49%
same,residual activity,SIK2 (human); compound 10.0 µM,47%
same,residual activity,SRPK1 (human); compound 1.0 µM,96%
same,residual activity,SRPK1 (human); compound 10.0 µM,94%
same,residual activity,TBK1 (human); compound 1.0 µM,86%
same,residual activity,TBK1 (human); compound 10.0 µM,42%
same,residual activity,TTBK1 (human); compound 1.0 µM,88%
same,residual activity,TTBK1 (human); compound 10.0 µM,91%
same,residual activity,ULK1 (human); compound 1.0 µM,62%
same,residual activity,ULK1 (human); compound 10.0 µM,85%
same,residual activity,WNK1 (human); compound 1.0 µM,62%
same,residual activity,WNK1 (human); compound 10.0 µM,99%
